Measurements from US20250345512A1, “COMBINATION SODIUM-GLUCOSE COTRANSPORTER INHIBITOR (SGLTI) INSULIN THERAPY FOR GLYCEMIC CONTROL IN TYPE 1 DIABETES” (University of Virginia Patent Foundation, priority 2022, published 2025).

Test system: participants with T1D
Experiment: Randomized crossover clinical trial (NCT04201496): CGM glycemic outcomes with 5 mg daily empagliflozin adjunctive to AID (Control-IQ, CIQ) or PLGS (Basal-IQ, BIQ)
Type: in vivo, human
Details: for Difference (95% CI): daytime glucose % Time in range of 70 to 180 mg/dL: adjusted for pre-randomization HbA1c
Protocol: FIG. 2 presents a study analysis relative to baseline, control IQ (CIQ) (e.g., AID), and basal IQ (BIQ) (e.g., PLGS) implementation, according to investigation that is demonstrable of one or more embodiments herein. Therein, an experimental arm (G1, G2) providing an initial daily dose of 5 mg empagliflozin (EMPA) is depicted against a control arm (G3, G4) without such dosing (NOEMPA). Relative characteristics of the analysis are provided below.
Study Design: A single-center, randomized, controlled, unblinded, crossover clinical trial (NCT04201496) compared four parallel groups, two groups in the experimental arm (EMPA) with 5 mg daily empagliflozin as adjunctive therapy to PLGS or AID, and two groups in the control arm (NOEMPA) with no drug and with a PLGS system (Basal-IQ, Tandem Diabetes Care) or AID system (Control-IQ, Tandem Diabetes Care). The groups within each arm differed from one another in the order of the randomly assigned crossover technological intervention, relative to PLGS being followed by AID or AID being followed by PLGS, respectively (FIG. 4). The study protocol was approved by the University of Virginia Institutional Review Board (IRB). An investigational device exemption (IDE), including an investigational new drug (IND) application for empagliflozin, was approved by the FDA. Safety aspects were overseen by an external data and safety monitoring board (DSMB). Participants: Major inclusion criteria were T1D treated with insulin for at least one year, use of continuous subcutaneous insulin infusion therapy for at least six months, age 18-65 yrs., no use of glucose lowering agents other than insulin, and Hb1Ac<9% (75 mmol/mol). Randomization: A (1:1:1:1) randomization assigned participants to either Group 1, AID-EMPA (4 weeks) followed by PLGS-EMPA (2 weeks), Group 2, PLGS-EMPA (2 weeks) followed by AID-EMPA (4 weeks), Group 3, AID-NOEMPA (4 weeks) followed by PLGS-NOEMPA (2 weeks), and Group 4, PLGS-NOEMPA (2 weeks) followed by AID-NOEMPA (4 weeks). Procedures: After confirmation of eligibility, participants underwent study equipment and medication training (experimental arm), or only study equipment training (control arm). Study equipment consisted of Dexcom G6® CGM (Dexcom Inc., San Diego, CA), Contour® Next blood glucose (Ascensia Diabetes Care, Basel, Switzerland) and Precision Xtra® blood ketone meters (Abbott, Alameda, CA) with their respective test strips; infusion sets, and the use of the t:slim X2™ insulin pump with Basal-IQ or Control-IQ technologies (Tandem Diabetes Care, San Diego, CA), according to randomization. […] Participants in the experimental arm were asked to record two days of baseline ketone values before initiating the use of the study drug. Thereafter, participants were directed to use the study CGM with EMPA for 1-2 weeks. A tolerance to the medication was assessed prior to the starting of the next study phase, including adherence to the protocol, ketone testing 2-4 times per day with monitored values not greater than 0.6 mmol/L on at least two successive occasions (the first testing upon waking in a fasted state), no adverse events relating to perineal infection or symptomatic postural hypotension, and no evidence of significant hypoglycemia <54 mg/dL, or any other listed adverse effects of the medication. Participants in the control arm were directed to use the study CGM for 1-2 weeks. Sample Size: The total sample size was projected to be 40 participants, assuming 1) 1:1:1:1 randomization; 2) 90% power and type 1 error a=0.01, further reinforcing the feasibility of hierarchical analyses. The projected recruitment sample was n=50, to accommodate up to 20% attrition rate without sacrificing statistical power. Analytical methods: For the primary analysis, TIR during the day in the 4-week AID period was compared between the two EMPA groups versus the two NOEMPA groups using a linear mixed-effects regression model while adjusting for pre-randomization HbAlc and age. […]

[1] = EMPA minus NOEMPA on same insulin system, adjusted for HbA1c
[2] = daytime (7:00-23:00), head prints CIQ-EMPA vs. BIQ-NOEMPA
[3] = daytime (7:00-23:00), CIQ-EMPA vs. BIQ-NOEMPA, BIQ-EMPA vs. CIQ-NOEMPA
[4] = daytime (7:00-23:00), CIQ-EMPA vs. CIQ-NOEMPA, BIQ-EMPA vs. BIQ-NOEMPA
[5] = daytime (7:00-23:00), n = 16, mean ± SD
[6] = daytime (7:00-23:00), n = 16, median (IQR)
[7] = overall, head prints CIQ-EMPA vs. BIQ-NOEMPA

## OC[C@H]1O[C@@H](c2ccc(Cl)c(Cc3ccc(O[C@H]4CCOC4)cc3)c2)[C@H](O)[C@@H](O)[C@@H]1O [CIQ-EMPA, empagliflozin]
24/7, n = 17
  24/7 HBGI - median (IQR): 2.7(2-4.4)
  24/7 LBGI - median (IQR): 0.5(0.4-0.6)
  24/7 glucose level <70 mg/dL (<3.9 mmol/L) - median % time (IQR): 1.1(0.5-1.5) %
24/7, n = 17, listed as AID-EMPA
  24/7 glucose level <70 mg/dL (<3.9 mmol/L) - median % time (IQR): 1.1(0.5-1.5) %
24/7, n = 17, mean ± SD
  24/7 Mean glucose level -: 137 ± 19 mg/dL
24/7, n = 17, mean ± SD, listed as AID-EMPA
  24/7 Mean glucose level -: 137 mg/dL
AID-EMPA vs AID-NOEMPA, daytime 7:00 to 23:00 h
  daytime TIR mean adjusted difference, amounting to hours per day: 1.6 hours per day
[1]
  Difference (95% CI): 24/7 HBGI: −2.5(−5.3 to 0.2)
  Difference (95% CI): 24/7 LBGI: 0.06(−0.4 to 0.5)
  Difference (95% CI): 24/7 Mean glucose level: −17.3(−35.4 to 0.8) mg/dL
  Difference (95% CI): 24/7 glucose level <70 mg/dL % time: −1.1(−3.2 to 0.9) percentage points
  Difference (95% CI): Daytime CGM CV: −3.3(−6.1 to −0.5) %
  Difference (95% CI): Daytime CGM SD: −9.3(−17.8 to −0.93) mg/dL
EMPA minus NOEMPA on same insulin system, adjusted for HbA1c, listed as AID-EMPA
  Difference (95% CI): 24/7 glucose level <70 mg/dL % time: −1.1 percentage points
EMPA minus NOEMPA on same insulin system
  Difference (95% CI): daytime glucose % Time in range of 70 to 180 mg/dL: 9.9(0.6 to 19.1) percentage points
EMPA minus NOEMPA on same insulin system, listed as AID-EMPA
  Difference (95% CI): daytime glucose % Time in range of 70 to 180 mg/dL: +9.9 percentage points
Daytime 7:00 to 23:00 h, n = 17, mean ± SD
  Primary: daytime glucose % Time in range of 70 to 180 mg/dL (3.9-10.0 mmol/L): 81 ± 10%
Daytime 7:00 to 23:00 h, n = 17, mean ± SD, listed as AID-EMPA
  Primary: daytime glucose % Time in range of 70 to 180 mg/dL (3.9-10.0 mmol/L): 81+10%
[2]
  Difference (95% CI): % CGM time 70-140 mg/dL (<3.9-7.8 mmol/L): −1.4 percentage points
  Difference (95% CI): % CGM time <60 mg/dL (<3.3 mmol/L): −0.5 percentage points
  Difference (95% CI): % CGM time >180 mg/dL (>10.0 mmol/L): −0.8 percentage points
  Difference (95% CI): % CGM time >250 mg/dL (>13.9 mmol/L): −1.6 percentage points
  Difference (95% CI): % CGM time >300 mg/dL (>16.7 mmol/L): −0.9 percentage points
  Difference (95% CI): CGM HBGI: −6.3
  Difference (95% CI): CGM LBGI: −0.3
  Difference (95% CI): Mean CGM glucose: 0.2 mg/dL
Daytime (7:00-23:00), head prints CIQ-EMPA vs. BIQ-NOEMPA, listed as AID-EMPA
  Difference (95% CI): % CGM time <70 mg/dL (<3.9 mmol/L): −1 percentage points
[3]
  Difference (95% CI): % CGM time 70-140 mg/dL (<3.9-7.8 mmol/L): 16.2 percentage points
  Difference (95% CI): % CGM time <60 mg/dL (<3.3 mmol/L): −0.6 percentage points
  Difference (95% CI): % CGM time <70 mg/dL (<3.9 mmol/L): −0.7 percentage points
  Difference (95% CI): % CGM time >180 mg/dL (>10.0 mmol/L): −17.6 percentage points
  Difference (95% CI): % CGM time >250 mg/dL (>13.9 mmol/L): −9.2 percentage points
  Difference (95% CI): % CGM time >300 mg/dL (>16.7 mmol/L): −3.6 percentage points
  Difference (95% CI): CGM HBGI: −4.4
  Difference (95% CI): CGM LBGI: 0
  Difference (95% CI): CGM SD: -15.5 mg/dL
  Difference (95% CI): Mean CGM glucose: -23.6 mg/dL
[4]
  Difference (95% CI): % CGM time <50 mg/dL (<2.8 mmol/L): −0.2 percentage points
  Difference (95% CI): % CGM time <60 mg/dL (<3.3 mmol/L): −0.7 percentage points
  Difference (95% CI): % CGM time >180 mg/dL (>10.0 mmol/L): −10.3 percentage points
  Difference (95% CI): % CGM time >250 mg/dL (>13.9 mmol/L): −3.8 percentage points
  Difference (95% CI): % CGM time >300 mg/dL (>16.7 mmol/L): −1.3 percentage points
  Difference (95% CI): CGM CV (%): −3.3%
  Difference (95% CI): CGM HBGI: −2.2
  Difference (95% CI): CGM LBGI: 0
  Difference (95% CI): CGM SD: -9.3 mg/dL
  Difference (95% CI): Mean CGM glucose: -14.6 mg/dL
[5]
  % CGM time 70-140 mg/dL (3.9-7.8 mmol/L): 56.7 ± 13.4%
  % CGM time 70-180 mg/dL (3.9-10.0 mmol/L): 80.6 ± 10.5%
  CGM CV (%): 30.4 ± 3.5%
  CGM SD: 42.6 ± 9.7 mg/dL
  Mean CGM glucose: 139 ± 19 mg/dL
[6]
  % CGM time <50 mg/dL (<2.8 mmol/L): 0(0-0.1) %
  % CGM time <60 mg/dL (<3.3 mmol/L): 0.4(0-0.5) %
  % CGM time <70 mg/dL (<3.9 mmol/L): 1.2(0.6-1.7) %
  % CGM time >180 mg/dL (>10.0 mmol/L): 15.8(6.2-26) %
  % CGM time >250 mg/dL (>13.9 mmol/L): 1.2(0.4-3.7) %
  % CGM time >300 mg/dL (>16.7 mmol/L): 0(0-0.6) %
  CGM HBGI: 3.4(1.9-5.5)
  CGM LBGI: 0.5(0.4-0.6)
daytime, n = 17, mean ± SD
  Daytime CGM CV - %: 30.4 ± 3.5%
  Daytime CGM SD -: 42.6 ± 9.8 mg/dL
[7]
  Difference: CGM HBGI: −1.1
  Difference: CGM LBGI: −0.3
overall, head prints CIQ-EMPA vs. BIQ-NOEMPA, listed as AID-EMPA
  Difference: % CGM time <70 mg/dL (<3.9 mmol/L): −1.2 percentage points
